Experimental data taken from ChEMBL document CHEMBL3091290, “2-(2-Phenylmorpholin-4-yl)pyrimidin-4(3H)-ones; a new class of potent, selective and orally active glycogen synthase kinase-3β inhibitors” (Bioorg Med Chem Lett, 2013).

Key:
Cytochrome P450 3A4 = Cytochrome P450 3A4 (Homo sapiens, UniProt P08684); experiment: Inhibition of recombinant human CYP3A4; type: ADME
Liver microsome [1] = experiment: Intrinsic clearance in human liver microsomes; type: ADME
Cytochrome P450 2D6 = Cytochrome P450 2D6 (Homo sapiens, UniProt P10635); experiment: Inhibition of recombinant human CYP2D6; type: ADME
Chain of Cytochrome P450 2D6 (P10635 whole entry): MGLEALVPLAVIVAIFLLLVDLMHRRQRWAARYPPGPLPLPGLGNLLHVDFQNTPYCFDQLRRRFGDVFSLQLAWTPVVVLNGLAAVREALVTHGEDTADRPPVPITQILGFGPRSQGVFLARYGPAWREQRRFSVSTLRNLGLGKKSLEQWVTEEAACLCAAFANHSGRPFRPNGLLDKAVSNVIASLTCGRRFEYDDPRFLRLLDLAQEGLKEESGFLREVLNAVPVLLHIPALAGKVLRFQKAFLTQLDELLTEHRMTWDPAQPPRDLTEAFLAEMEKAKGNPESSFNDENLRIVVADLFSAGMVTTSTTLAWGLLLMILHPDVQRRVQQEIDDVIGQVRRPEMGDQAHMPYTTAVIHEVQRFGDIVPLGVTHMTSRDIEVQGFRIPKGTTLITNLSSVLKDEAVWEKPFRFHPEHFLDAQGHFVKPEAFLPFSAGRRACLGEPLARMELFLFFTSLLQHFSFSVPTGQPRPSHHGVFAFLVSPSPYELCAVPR

Cytochrome P450 1A2 = molecular target: T1, Cytochrome P450 1A2 (Homo sapiens, UniProt P05177); experiment: Inhibition of recombinant human CYP1A2; type: ADME
T1 sequence (P05177 whole entry): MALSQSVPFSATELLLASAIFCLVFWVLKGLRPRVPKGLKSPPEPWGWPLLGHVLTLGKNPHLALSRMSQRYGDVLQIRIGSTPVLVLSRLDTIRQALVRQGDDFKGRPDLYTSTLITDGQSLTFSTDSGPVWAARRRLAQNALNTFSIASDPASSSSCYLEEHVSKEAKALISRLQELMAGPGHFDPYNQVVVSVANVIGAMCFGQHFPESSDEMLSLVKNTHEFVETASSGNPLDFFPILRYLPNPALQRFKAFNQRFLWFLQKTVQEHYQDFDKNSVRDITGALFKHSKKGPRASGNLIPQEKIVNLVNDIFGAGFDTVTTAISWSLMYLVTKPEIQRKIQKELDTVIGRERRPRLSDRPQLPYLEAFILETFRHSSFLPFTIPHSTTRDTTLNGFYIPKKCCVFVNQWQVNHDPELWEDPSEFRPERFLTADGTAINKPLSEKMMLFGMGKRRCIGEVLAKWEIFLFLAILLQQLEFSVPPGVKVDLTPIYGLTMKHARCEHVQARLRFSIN

[2] = molecular target: Glycogen synthase kinase-3 beta (Homo sapiens, UniProt P49841); experiment: Inhibition of human recombinant GSK-3beta using prephosphorylated GS1 peptide and [gamma-32P]ATP as substrate after 1 hr by liquid scintillation spectrometry
Chain of Glycogen synthase kinase-3 beta (P49841 whole entry): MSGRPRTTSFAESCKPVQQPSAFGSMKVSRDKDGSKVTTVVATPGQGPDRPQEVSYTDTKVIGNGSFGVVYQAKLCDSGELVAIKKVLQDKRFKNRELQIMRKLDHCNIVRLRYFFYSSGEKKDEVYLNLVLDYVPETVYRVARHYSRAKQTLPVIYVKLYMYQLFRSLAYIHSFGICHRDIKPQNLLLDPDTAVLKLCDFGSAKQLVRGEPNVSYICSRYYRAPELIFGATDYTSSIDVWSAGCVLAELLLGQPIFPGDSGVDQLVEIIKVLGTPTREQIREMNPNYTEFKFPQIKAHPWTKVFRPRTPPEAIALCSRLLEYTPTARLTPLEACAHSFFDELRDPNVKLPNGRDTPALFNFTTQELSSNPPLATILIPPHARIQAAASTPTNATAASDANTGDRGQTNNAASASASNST

MDR1 (P-glycoprotein) = experiment: Permeability efflux ratio in MDR1 expressing pig LLC cells; type: ADME, cell-based, Sus scrofa; conditions: LLC-PK1
[3] = Oral bioavailability in Sprague-Dawley rat at 10 mg/kg; type: ADME, organism-based; conditions: in vivo
[4] = Permeability of the compound across human Caco2 cells; type: ADME, cell-based; conditions: Caco-2, read-out: permeability
[5] = Ratio of drug level in brain (0 to infinity) to plasma (0 to infinity) in ICR mouse at 1 mg/kg, po; type: ADME, organism-based; set-up: dose 1 mg/kg, route oral; conditions: read-out: BPR
[6] = AUC (0 to infinity) in Sprague-Dawley rat at 10 mg/kg, po; type: ADME, organism-based; set-up: time infinity, dose 10 mg/kg, route oral; conditions: plasma
Rattus norvegicus = experiment: Cmax in Sprague-Dawley rat at 10 mg/kg, po; type: ADME, organism-based; set-up: dose 10 mg/kg, route oral; conditions: in vivo
[7] = Volume of distribution at steady state in Sprague-Dawley rat at 1 mg/kg, iv; type: ADME, organism-based; set-up: dose 1 mg/kg, route intravenous; conditions: in vivo, read-out: Vdss
[8] = Half life in Sprague-Dawley rat at 10 mg/kg, po; type: ADME, organism-based; set-up: dose 10 mg/kg, route oral; conditions: in vivo
[9] = molecular target: Casein kinase I isoform alpha (Homo sapiens, UniProt P48729); experiment: Inhibition of CK1 (unknown origin)
Chain of Casein kinase I isoform alpha (P48729 whole entry, canonical isoform): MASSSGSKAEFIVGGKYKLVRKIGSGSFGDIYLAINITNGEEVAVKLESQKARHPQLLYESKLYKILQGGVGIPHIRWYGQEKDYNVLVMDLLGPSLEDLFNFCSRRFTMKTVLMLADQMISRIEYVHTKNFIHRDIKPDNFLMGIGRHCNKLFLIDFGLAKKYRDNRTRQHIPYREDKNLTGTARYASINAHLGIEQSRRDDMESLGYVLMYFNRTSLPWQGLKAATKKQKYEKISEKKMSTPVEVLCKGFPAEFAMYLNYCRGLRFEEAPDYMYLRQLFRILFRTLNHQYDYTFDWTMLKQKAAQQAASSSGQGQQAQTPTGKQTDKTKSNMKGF

[10] = Total clearance in Sprague-Dawley rat at 1 mg/kg, iv; type: ADME, organism-based; set-up: dose 1 mg/kg, route intravenous; conditions: in vivo
Liver microsome [11] = experiment: Clearance in rat liver microsomes; type: ADME

Chain of Cytochrome P450 3A4 (P08684 whole entry): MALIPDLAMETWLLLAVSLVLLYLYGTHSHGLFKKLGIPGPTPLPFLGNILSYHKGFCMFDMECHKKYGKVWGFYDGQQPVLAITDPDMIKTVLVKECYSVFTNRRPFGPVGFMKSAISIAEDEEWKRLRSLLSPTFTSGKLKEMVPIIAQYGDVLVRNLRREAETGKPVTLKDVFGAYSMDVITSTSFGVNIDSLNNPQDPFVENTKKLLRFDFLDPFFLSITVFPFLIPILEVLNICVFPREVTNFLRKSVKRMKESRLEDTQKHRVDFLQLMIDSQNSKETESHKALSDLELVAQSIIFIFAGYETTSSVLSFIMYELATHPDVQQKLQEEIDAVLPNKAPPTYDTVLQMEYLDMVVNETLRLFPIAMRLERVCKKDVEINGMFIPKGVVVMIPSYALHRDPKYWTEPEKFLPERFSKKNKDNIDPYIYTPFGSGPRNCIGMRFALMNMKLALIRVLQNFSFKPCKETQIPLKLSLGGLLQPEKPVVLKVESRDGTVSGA

IC50 (Cytochrome P450 3A4)	Intrinsic clearance (Liver microsome [1])	IC50 (Cytochrome P450 2D6)	IC50 (Cytochrome P450 1A2)	IC50 [2]	SMILES	further results
> 50 µM	130 µL/min/mg	26.6 µM	> 50 µM	0.0046 µM	COc1cccc([C@H]2CN(c3nc(-c4ccncn4)cc(=O)n3C)CCO2)c1	–
> 50 µM	–	44.2 µM	17.1 µM	0.022 µM	Cn1c(N2CCO[C@@H](c3ccc(F)cc3)C2)nc(-c2ccncc2)cc1=O	–
–	–	–	–	0.077 µM	Cn1c(N2CCO[C@H](c3ccc(F)cc3)C2)nc(-c2ccncc2)cc1=O	–
> 50 µM	–	22.1 µM	5.5 µM	0.0074 µM	Cn1c(N2CCO[C@@H](c3ccc(F)cc3)C2)nc(-c2ccncc2F)cc1=O	–
–	–	–	–	0.43 µM	Cn1c(N2CCO[C@@H](c3ccc(F)cc3)C2)nc(-c2ccncc2Cl)cc1=O	–
–	–	–	–	2.47 µM	Cc1cnccc1-c1cc(=O)n(C)c(N2CCO[C@@H](c3ccc(F)cc3)C2)n1	–
–	–	–	–	0.791 µM	COc1cnccc1-c1cc(=O)n(C)c(N2CCO[C@@H](c3ccc(F)cc3)C2)n1	–
–	–	–	–	0.903 µM	Cn1c(N2CCO[C@@H](c3ccc(F)cc3)C2)nc(-c2ccnc(Cl)c2)cc1=O	–
> 50 µM	60 µL/min/mg	39.7 µM	29.4 µM	0.012 µM	Cn1c(N2CCO[C@@H](c3ccc(F)cc3)C2)nc(-c2ccncn2)cc1=O	efflux ratio (MDR1 (P-glycoprotein)): 1; bioavailability [3]: 37%; Papp [4]: 58.3 ×10⁻⁶ cm/s; Kp [5]: 3.1; AUC(0-inf) [6]: 1300 ng·h/mL; Cmax (Rattus norvegicus): 221 ng/mL; Vd [7]: 2.4 L/kg; half-life [8]: 1.7 h; IC50 [9]: 1.5 µM; clearance [10]: 48.3 mL/min/kg
–	30 µL/min/mg	4.5 µM	> 50 µM	0.013 µM	Cn1c(N2CCO[C@@H](c3ccc(C#N)cc3)C2)nc(-c2ccncn2)cc1=O	–
–	110 µL/min/mg	6.9 µM	> 50 µM	0.0029 µM	COc1ccc([C@H]2CN(c3nc(-c4ccncn4)cc(=O)n3C)CCO2)cc1	–
–	100 µL/min/mg	32.4 µM	23.3 µM	0.0032 µM	Cn1c(N2CCO[C@@H](c3ccccc3F)C2)nc(-c2ccncn2)cc1=O	–
–	190 µL/min/mg	16 µM	15.7 µM	0.00087 µM	COc1ccccc1[C@H]1CN(c2nc(-c3ccncn3)cc(=O)n2C)CCO1	–
–	180 µL/min/mg	18 µM	16.5 µM	0.00047 µM	COc1cc(F)ccc1[C@H]1CN(c2nc(-c3ccncn3)cc(=O)n2C)CCO1	–
–	200 µL/min/mg	> 50 µM	> 50 µM	0.00023 µM	COc1cccc(OC)c1[C@H]1CN(c2nc(-c3ccncn3)cc(=O)n2C)CCO1	–
–	30 µL/min/mg	26.7 µM	> 50 µM	0.0065 µM	Cn1c(N2CCO[C@@H](c3ccc(C#N)cc3F)C2)nc(-c2ccncn2)cc1=O	–
–	70 µL/min/mg	32.3 µM	19.5 µM	0.00064 µM	Cn1c(N2CCO[C@@H](c3c(F)cccc3Cl)C2)nc(-c2ccncn2)cc1=O	–
> 50 µM	–	> 50 µM	–	–	Cn1c(NCC(=O)c2ccccc2)nc(-c2ccncc2)cc1=O	–
> 50 µM	–	47.4 µM	23.1 µM	0.051 µM	Cn1c(N2CCOC(c3ccccc3)C2)nc(-c2ccncc2)cc1=O (racemic)	CLH (Liver microsome [11]): 155 µL/min/mg
> 50 µM	–	35.8 µM	23.9 µM	0.027 µM	Cn1c(N2CCOC(c3ccc(F)cc3)C2)nc(-c2ccncc2)cc1=O (racemic)	CLH (Liver microsome [11]): 104 µL/min/mg
